Assays:
[1] = target: T1, (E)-β-farnesene synthase (BFS), A. annua BFS (Artemisia annua, UniProt Q9FXY7); conditions: 5 mM MgCl2, pH 7.0, 30 °C, inorganic pyrophosphatase coupled
T1 construct: gene CASC125
Source text: (§1) malachite green assay, steady-state kinetics on (E)-β-farnesene synthase (BFS), A. annua BFS

[2] = target: T2, (E)-β-farnesene synthase (BFS), A. annua BFS (Artemisia annua, UniProt Q9FXY7, Y305L/Y433A, form not given); conditions: 5 mM MgCl2, pH 7.0, 30 °C, inorganic pyrophosphatase coupled
T2 construct: gene CASC125
T2 sequence (Q9FXY7 whole entry Y305L/Y433A, form open): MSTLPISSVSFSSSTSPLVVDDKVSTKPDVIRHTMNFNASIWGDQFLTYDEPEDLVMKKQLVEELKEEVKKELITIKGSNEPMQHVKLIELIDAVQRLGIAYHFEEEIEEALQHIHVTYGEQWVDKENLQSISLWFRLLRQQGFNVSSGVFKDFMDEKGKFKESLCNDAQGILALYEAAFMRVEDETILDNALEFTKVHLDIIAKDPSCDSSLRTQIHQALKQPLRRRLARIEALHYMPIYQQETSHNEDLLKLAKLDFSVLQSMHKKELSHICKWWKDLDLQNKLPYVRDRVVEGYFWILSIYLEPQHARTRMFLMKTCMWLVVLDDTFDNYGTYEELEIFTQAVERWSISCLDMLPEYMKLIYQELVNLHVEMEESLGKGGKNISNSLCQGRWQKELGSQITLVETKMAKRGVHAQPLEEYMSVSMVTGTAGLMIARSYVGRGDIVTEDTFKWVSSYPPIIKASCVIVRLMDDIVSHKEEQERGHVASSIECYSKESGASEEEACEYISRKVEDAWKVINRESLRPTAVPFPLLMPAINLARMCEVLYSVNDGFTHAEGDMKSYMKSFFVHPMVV
Source text: as §1

[3] = target: T3, (E)-β-farnesene synthase (BFS), A. annua BFS (Artemisia annua, UniProt Q9FXY7, Y423L/V470G, form not given); conditions: 5 mM MgCl2, pH 7.0, 30 °C, inorganic pyrophosphatase coupled
T3 construct: gene CASC125
T3 sequence (Q9FXY7 whole entry Y423L/V470G, form open): as the sequence (Q9FXY7 whole entry Y305L/Y433A, form open) above, with L305Y, Y423L, A433Y, V470G counted along it
Source text: as §1

[4] = target: T4, (E)-β-farnesene synthase (BFS), A. annua BFS (Artemisia annua, UniProt Q9FXY7, Y433A/V470G, form not given); conditions: 5 mM MgCl2, pH 7.0, 30 °C, inorganic pyrophosphatase coupled
T4 construct: gene CASC125
T4 sequence (Q9FXY7 whole entry Y433A/V470G, form open): as the sequence (Q9FXY7 whole entry Y305L/Y433A, form open) above, with L305Y, V470G counted along it
Source text: as §1

[5] = target: T5, amorpha-4,11-diene synthase (ADS) (Artemisia annua, UniProt Q9AR04); test: GC-MS product analysis and malachite green assay; format: biochemical; conditions: 5 mM MgCl2, pH 7.0; numbering likely that of A. annua BFS
T5 construct: gene AMS1; recombinant
T5 sequence (Q9AR04 whole entry): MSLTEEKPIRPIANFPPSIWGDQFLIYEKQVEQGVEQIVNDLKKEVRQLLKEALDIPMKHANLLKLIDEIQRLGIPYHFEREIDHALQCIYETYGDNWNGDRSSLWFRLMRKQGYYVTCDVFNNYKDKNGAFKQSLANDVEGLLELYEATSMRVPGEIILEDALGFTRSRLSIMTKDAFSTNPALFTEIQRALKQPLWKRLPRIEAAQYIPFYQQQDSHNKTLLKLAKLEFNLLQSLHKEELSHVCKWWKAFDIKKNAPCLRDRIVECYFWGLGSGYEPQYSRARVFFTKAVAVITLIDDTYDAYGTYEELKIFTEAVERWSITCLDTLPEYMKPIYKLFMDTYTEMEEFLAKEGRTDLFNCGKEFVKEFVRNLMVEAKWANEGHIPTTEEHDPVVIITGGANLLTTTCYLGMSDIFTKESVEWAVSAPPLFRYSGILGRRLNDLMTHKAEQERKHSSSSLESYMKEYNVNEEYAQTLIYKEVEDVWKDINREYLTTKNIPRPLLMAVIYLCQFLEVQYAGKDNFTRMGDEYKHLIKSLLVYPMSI

T1 sequence (Q9FXY7 whole entry): as the sequence (Q9FXY7 whole entry Y305L/Y433A, form open) above, with L305Y, A433Y counted along it

Structure (SMILES) | Km [1] | Km [2] | Km [3] | Km [4] | GC-MS product analysis and malachite green assay [5]
CC(C)=CCC/C(C)=C/CC/C(C)=C/CO[P@@](=O)(O)OP(=O)(O)O (stereo in doubt) [FPP, farnesyl pyrophosphate] | 10.6 µM | 5.22 µM | 5.99 µM | 4.27 µM | –
CC(C)=CCC/C(C)=C/CC/C(C)=C/COP(=O)(O)OP(=O)(O)O [FPP, farnesyl pyrophosphate] | – | – | – | – | incorporating the L402Y mutation into ADS induced a broadening of cyclization products

From paper PMC4327562, “Emergence of terpene cyclization in Artemisia annua” (Nature Communications, 2015)
